Measurements taken from patent US20140030311A1, “MONOLITHIC INTRAVAGINAL RINGS COMPRISING PROGESTERONE AND METHODS OF MAKING AND USES THEREOF” (TEVA WOMEN'S HEALTH, INC., priority 2009, published 2014).

Experiments:
endometrium = experiment: Post-study mock cycle and donor egg IVF of the two ring non-responders on other progesterone; format: in vivo, human; conditions: for outcome of post-study donor egg IVF: single subject; for biopsy result in post-study mock cycle: single subject without transformation on the ring
Text: There was a fibroid found in surgery post-study, which could have affected blood supply to the endometrium. […] The subject is considering one more IVF attempt with a donor egg.

IVF cycles = conditions: luteal phase support in IVF cycles; Soliman et al. 1994; cited from earlier work

| SMILES | outcome of post-study donor egg IVF (endometrium) | biopsy result in post-study mock cycle (endometrium) | pregnancy rates versus placebo (IVF cycles) |
| --- | --- | --- | --- |
| CC(=O)[C@H]1CC[C@H]2[C@@H]3CCC4=CC(=O)CC[C@]4(C)[C@H]3CC[C@]12C [IM progesterone, pregn-4-ene-3,20-dione] | ongoing pregnancy with delivery | adequate transformation | – |
| CC(=O)[C@H]1CC[C@H]2[C@@H]3CCC4=CC(=O)CC[C@]4(C)[C@H]3CC[C@]12C [micronized progesterone, pregn-4-ene-3,20-dione] | negative βhCG | adequate transformation | – |
| CC(=O)[C@H]1CC[C@H]2[C@@H]3CCC4=CC(=O)CC[C@]4(C)[C@H]3CC[C@]12C [progesterone, pregn-4-ene-3,20-dione] | – | – | significantly higher pregnancy rates than placebo |
